Values of other authors in publication PMC9516332 (Frontiers in Oncology, 2022).
Where two headings read alike, the source gives them in different places.

Tests used:
Conditions in all cases: cited from earlier work
[1] = target: T1, panel of 255 wild-type kinases (Homo sapiens, UniProt Q8TF76)
T1 sequence (Q8TF76 1-798): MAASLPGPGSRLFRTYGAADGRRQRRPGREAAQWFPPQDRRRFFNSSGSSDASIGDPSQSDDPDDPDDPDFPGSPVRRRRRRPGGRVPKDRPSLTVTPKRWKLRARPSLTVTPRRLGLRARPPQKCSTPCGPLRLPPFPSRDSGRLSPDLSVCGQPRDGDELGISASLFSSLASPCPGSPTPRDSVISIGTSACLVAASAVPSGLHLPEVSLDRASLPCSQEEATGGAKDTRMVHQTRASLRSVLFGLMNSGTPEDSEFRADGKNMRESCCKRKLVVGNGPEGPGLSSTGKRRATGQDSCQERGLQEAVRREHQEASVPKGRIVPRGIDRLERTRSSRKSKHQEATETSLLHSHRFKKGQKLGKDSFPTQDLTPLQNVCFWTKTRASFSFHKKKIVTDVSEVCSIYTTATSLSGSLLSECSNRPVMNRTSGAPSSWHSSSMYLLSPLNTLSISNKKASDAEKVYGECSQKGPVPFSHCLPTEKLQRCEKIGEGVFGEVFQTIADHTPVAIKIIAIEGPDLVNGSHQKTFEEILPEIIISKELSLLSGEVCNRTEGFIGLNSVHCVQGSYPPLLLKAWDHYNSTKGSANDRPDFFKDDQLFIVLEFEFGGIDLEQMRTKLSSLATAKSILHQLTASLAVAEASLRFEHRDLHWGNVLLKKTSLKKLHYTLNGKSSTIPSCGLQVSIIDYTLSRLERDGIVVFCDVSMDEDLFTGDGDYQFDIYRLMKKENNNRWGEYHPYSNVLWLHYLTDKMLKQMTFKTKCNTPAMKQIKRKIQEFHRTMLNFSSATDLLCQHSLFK

[2] = target: panel of 255 wild-type kinases (Homo sapiens, UniProt Q13882)
[3] = target: panel of 255 wild-type kinases (Homo sapiens, UniProt Q9BUB5)
[4] = target: T2, panel of 255 wild-type kinases (Homo sapiens, UniProt Q96PY6)
T2 sequence (Q96PY6 1-1258): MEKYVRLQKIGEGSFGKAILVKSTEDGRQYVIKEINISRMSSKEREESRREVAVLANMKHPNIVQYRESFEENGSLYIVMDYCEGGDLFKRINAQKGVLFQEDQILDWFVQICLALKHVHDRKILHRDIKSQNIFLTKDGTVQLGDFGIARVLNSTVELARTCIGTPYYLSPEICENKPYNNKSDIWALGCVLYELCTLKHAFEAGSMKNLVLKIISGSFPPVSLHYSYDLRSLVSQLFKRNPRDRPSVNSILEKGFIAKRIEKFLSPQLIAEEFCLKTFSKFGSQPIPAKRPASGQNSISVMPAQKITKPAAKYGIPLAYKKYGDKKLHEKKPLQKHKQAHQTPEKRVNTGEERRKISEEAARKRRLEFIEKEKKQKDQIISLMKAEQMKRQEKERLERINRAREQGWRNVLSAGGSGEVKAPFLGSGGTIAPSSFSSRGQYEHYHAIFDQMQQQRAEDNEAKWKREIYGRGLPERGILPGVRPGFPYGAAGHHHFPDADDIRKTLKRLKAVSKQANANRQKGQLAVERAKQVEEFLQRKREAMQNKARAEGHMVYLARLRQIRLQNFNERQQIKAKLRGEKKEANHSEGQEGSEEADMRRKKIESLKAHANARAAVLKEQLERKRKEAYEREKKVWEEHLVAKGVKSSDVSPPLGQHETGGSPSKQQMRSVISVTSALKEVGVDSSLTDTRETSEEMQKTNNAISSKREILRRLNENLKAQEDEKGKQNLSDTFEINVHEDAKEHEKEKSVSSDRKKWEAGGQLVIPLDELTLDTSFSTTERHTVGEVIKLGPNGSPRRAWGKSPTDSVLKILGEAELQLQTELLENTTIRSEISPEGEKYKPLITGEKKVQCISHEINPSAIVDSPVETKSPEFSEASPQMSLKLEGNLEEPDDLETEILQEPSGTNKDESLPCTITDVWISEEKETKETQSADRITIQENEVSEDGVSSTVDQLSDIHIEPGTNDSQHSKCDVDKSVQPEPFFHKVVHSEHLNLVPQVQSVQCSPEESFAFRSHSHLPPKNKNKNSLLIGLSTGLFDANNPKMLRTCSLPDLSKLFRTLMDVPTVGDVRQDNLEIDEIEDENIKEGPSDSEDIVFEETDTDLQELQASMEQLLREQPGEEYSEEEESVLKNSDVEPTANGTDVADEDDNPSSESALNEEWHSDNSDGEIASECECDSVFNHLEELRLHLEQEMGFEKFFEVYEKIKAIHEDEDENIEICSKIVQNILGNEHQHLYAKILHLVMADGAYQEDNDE

[5] = kinase Haspin, 1 µmol/L single concentration, ref DOI: 10.1158/1535-7163.MCT-18-0877
[6] = BRK kinase assay, 1 µmol/L single concentration, ref DOI: 10.1158/1535-7163.MCT-18-0877
[7] = MNK1, 1 µmol/L single concentration, ref DOI: 10.1158/1535-7163.MCT-18-0877
[8] = NEK1, 1 µmol/L single concentration, ref DOI: 10.1158/1535-7163.MCT-18-0877
[9] = kinase Haspin, 1 µmol/L single concentration, ref DOI: 10.1371/journal.pone.0092146
[10] = BRK kinase assay, 1 µmol/L single concentration, ref DOI: 10.1371/journal.pone.0092146
[11] = MNK1, 1 µmol/L single concentration, ref DOI: 10.1371/journal.pone.0092146
[12] = NEK1, 1 µmol/L single concentration, ref DOI: 10.1371/journal.pone.0092146

| SMILES | %-inhibition at 1 µmol/L, Haspin [1, 5] | %-inhibition BRK [2, 6] | %-inhibition, MNK1 [3, 7] | %-inhibition, NEK1 [4, 8] | %-inhibition at 1 µmol/L, Haspin [1, 9] | %-inhibition BRK [2, 10] | %-inhibition, MNK1 [3, 11] | %-inhibition, NEK1 [4, 12] | also measured |
| --- | --- | --- | --- | --- | --- | --- | --- | --- | --- |
| CC#CC(=O)N1CCC[C@H]1c1nc(-c2ccc(C(=O)Nc3ccccn3)cc2)c2c(N)nccn12 [acalabrutinib] | 5.31% | 51% | 12% | -7.46% | – | – | – | – | – |
| CCc1cc2c(cc1N1CCC(N3CCOCC3)CC1)C(C)(C)c1[nH]c3cc(C#N)ccc3c1C2=O [alectinib] | 8% | 9% | 18% | 5% | – | – | – | – | – |
| COc1cc(N2CCC(N3CCN(C)CC3)CC2)ccc1Nc1ncc(Cl)c(Nc2ccccc2P(C)(C)=O)n1 [brigatinib] | – | – | – | – | – | – | – | – | %-inhibition at 1 µmol/L, Haspin [1]: 9%; %-inhibition BRK [2]: 103%; %-inhibition, MNK1 [3]: 16%; %-inhibition, NEK1 [4]: 8% |
| Cc1cc(Nc2ncc(Cl)c(Nc3ccccc3S(=O)(=O)C(C)C)n2)c(OC(C)C)cc1C1CCNCC1 [ceritinib] | 7% | 98% | -1.9% | -1.68% | – | – | – | – | – |
| O=C(c1ccc(F)c(F)c1Nc1ccc(I)cc1F)N1CC(O)([C@@H]2CCCCN2)C1 [cobimetinib] | 8% | -1% | 14% | 4.29% | – | – | – | – | – |
| C[C@@H](Oc1cc(-c2cnn(C3CCNCC3)c2)cnc1N)c1c(Cl)ccc(F)c1Cl [crizotinib] | – | – | – | – | 7% | 15% | 0% | 2.24% | – |
| CC(C)(C)c1nc(-c2cccc(NS(=O)(=O)c3c(F)cccc3F)c2F)c(-c2ccnc(N)n2)s1 [dabrafenib] | – | – | – | – | 9% | 98% | 20% | 24% | – |
| C=CC(=O)N1CCC[C@@H](n2nc(-c3ccc(Oc4ccccc4)cc3)c3c(N)ncnc32)C1 [ibrutinib] | 2.53% | – | 15% | 3.73% | – | – | – | – | %-inhibition BRK [2]: 103% |
| CO[C@@H]1[C@H](N(C)C(=O)c2ccccc2)C[C@H]2O[C@]1(C)n1c3ccccc3c3c4c(c5c6ccccc6n2c5c31)C(=O)NC4 [midostaurin] | 31% | 11% | 50% | 13% | – | – | – | – | – |
| C=CC(=O)Nc1cc(Nc2nccc(-c3cn(C)c4ccccc34)n2)c(OC)cc1N(C)CCN(C)C [osimertinib] | 14% | 101% | 99% | 2.43% | – | – | – | – | – |
| CC(=O)Nc1cccc(-n2c(=O)n(C3CC3)c(=O)c3c(Nc4ccc(I)cc4F)n(C)c(=O)c(C)c32)c1 [trametinib] | – | – | – | – | 5% | -5.53% | -3% | -5% | – |
| CCCS(=O)(=O)Nc1ccc(F)c(C(=O)c2c[nH]c3ncc(-c4ccc(Cl)cc4)cc23)c1F [vemurafenib] | – | – | – | – | -3% | 98% | 23% | -2.74% | – |
